Results on 101 compounds are retold here after ChEMBL document CHEMBL3507680, “University of Dundee, Gates Library screen for HepG2 cell viability”.

The nature of this data set: Human HepG2 cell viability assay in 384 well format. On the set-up: dose 125 nL, time 70.5 hour; cytotoxicity at 70.5 h: concentration not given beside the values. The settings on record: HepG2 cells, read-out: Inhibition. Type of data set: toxicity, cell-based.
Turning to `O=C(C1CCCC1)N1CCO[C@H]2[C@H](OCC3CCOCC3)CC[C@@H]21`, the cytotoxicity at 70.5 h was -5.12%.

Consider `COCC1c2c(cnn2C)CCN1Cc1ccsc1` (stereo unspecified), for which the cytotoxicity at 70.5 h is -22.9%. The result for `Cn1cc(-c2cnc(N3CCCC3)nc2)cc1C(=O)N1CCOCC1` reads -27.4%. The value for `O=C(C1CCOCC1)N1CCO[C@H]2[C@@H](OCC3CC3)CC[C@@H]21` was -6.56%; that for `Cn1nc(C(=O)NCc2ccccc2C(F)(F)F)c2c1CCS(=O)(=O)C2` was -5.12%. The value for `COc1ccc(CNC(=O)c2nn(C)c3c2CS(=O)(=O)CC3)cc1` was -7.69%.

With `CCC(C)NC(=O)c1nn(C)c(NC(=O)c2ccccc2OC)c1F` (stereo unspecified), the cytotoxicity at 70.5 h was -10.8%. The result for `CCC1=NC(SCC(=O)c2ccc(OC)cc2)c2cc(CC)sc2N1` (stereo unspecified) reads 12.2%; that for `CCNS(=O)(=O)c1ccc2c(c1)c(=O)n(CC)c(=O)n2CC`, 2%; that for `Cc1cc2c(cc1NC(N)=O)OCO2`, -4.79%. Take `Cc1c(S(=O)(=O)N2CCOCC2)cc2c(C)cc(=O)n3c2c1CCC3`: the cytotoxicity at 70.5 h was 0.511%.

Take `CN(C)S(=O)(=O)Nc1ccc(Oc2ccc3c(c2)OCO3)cc1`: the cytotoxicity at 70.5 h is -5.35%. Consider `COc1ccc(C2=Nn3c(CN)nnc3-c3ccccc3C2)cc1`, for which the cytotoxicity at 70.5 h is -18.7%.

As to `O=C(NCc1cccs1)c1[nH]nc2c1CS(=O)(=O)CC2`, the cytotoxicity at 70.5 h was -0.606%. The result for `CCn1nccc1CNc1[nH]cnc2nncc1-2` reads -20.2%; that for `CCn1nccc1CN(C)c1[nH]cnc2nc(C)nc1-2`, -5.53%; that for `CCn1ncc(Nc2[nH]cnc3nc(C)nc2-3)c1C`, -6.65%.

With `O=C1CNc2ncnc(N3CCN(Cc4cccc(F)c4)CC3)c2N1`, the cytotoxicity at 70.5 h came out at 17.9%.

On to `O=C1CNc2ncnc(Nc3cnn(Cc4cccc(F)c4)c3)c2N1`, for which the cytotoxicity at 70.5 h was -16.6%. The result for `O=C1CNc2ncnc(N3CCN(c4ccccc4F)CC3)c2N1` reads 16.1%.

As for `CCCc1noc(C2CCN(C(=O)C3CCCO3)CC2)n1` (stereo unspecified), the cytotoxicity at 70.5 h was -13.7%. With `CC(C)c1noc(C2CCN(S(=O)(=O)c3cccs3)CC2)n1`, the cytotoxicity at 70.5 h is -0.463%. Turning to `CCc1noc(C2CCCCN2C(=O)c2cccs2)n1` (stereo unspecified), the cytotoxicity at 70.5 h was -4.33%. For `CCc1noc(C2CCCCN2C(=O)c2ccc3c(c2)OCO3)n1` (stereo unspecified), the cytotoxicity at 70.5 h is -4.04%. Turning to `CCS(=O)(=O)N1CCCCC1c1nc(C(C)C)no1` (stereo unspecified), the cytotoxicity at 70.5 h is 7.03%.

`Cc1nn(C)c2cnn(CC(=O)NCc3ccc(F)cc3)c12`: the cytotoxicity at 70.5 h was 12.4%. Turning to `CC(c1ccncc1)N1Cc2nc(N(C)C)ncc2C1=O` (stereo unspecified), the cytotoxicity at 70.5 h was -2.18%.

Take `CC(C)Cc1noc(C2CCN(C(=O)c3cccs3)CC2)n1`: the cytotoxicity at 70.5 h is -0.0683%. The value for `Cc1nn(C)c2cnn(CC(=O)NCc3ccc4c(c3)OCO4)c12` was -3.63%; that for `Cc1nn(C)c(C)c1CN1CCN(CC2(O)CCCN(C)C2)CC1` (stereo unspecified) was -10.5%; that for `Cc1nn(C)c2cnn(Cc3ccc(C(=O)NC4CC4)cc3)c12` was -5.97%. The value for `Cc1nn(C)c2cnn(CC(=O)NCc3ccccc3F)c12` was -8.04%; that for `Cc1nn(C)c2cnn(CC(=O)NCc3cccs3)c12` was -8.64%; that for `CCN1CCCC(O)(CN(C)Cc2ccccc2F)C1` (stereo unspecified) was -9.61%.

Regarding `Cc1cc(C)n(CCC(=O)N2CCC(c3nc(C)no3)CC2)n1`, the cytotoxicity at 70.5 h is -12.5%. The value for `Cc1noc(C2CCCN(C(=O)c3cc(-c4ccccc4)on3)C2)n1` (stereo unspecified) was -20.7%; that for `Cc1nn(C)c2cn(C(C)C(=O)NCc3cccc(F)c3)nc12` (stereo unspecified) was -3%. Turning to `Cc1cccc2c1ccn2CC(=O)O`, the cytotoxicity at 70.5 h is 6.19%. Regarding `CC(O)c1cccc(Nc2nc(NCCO)c3ccccc3n2)c1` (stereo unspecified), the cytotoxicity at 70.5 h is -5.65%.

For `Cc1cc2[nH]c(O)nc2cc1NCc1ccc(F)cc1`, the cytotoxicity at 70.5 h is -10.2%. The value for `O=c1c2cnc(N3CCCCC3)nc2ccn1Cc1ccco1` was -7.45%; that for `Cc1nc(N2CCCC2)ncc1-c1cc(O)nc(NCC2CCCO2)n1` (stereo unspecified) was -5.1%.

For `Cc1nn(C)c2cn(CC(=O)N3CCN(c4ccccc4)CC3)nc12`, the cytotoxicity at 70.5 h came to 7.34%. As for `CCn1nccc1CNC(=O)Cn1cc2c(n1)c(C)nn2C(C)C`, the cytotoxicity at 70.5 h was -9.07%. The result for `CCN1CCCC(O)(CNCc2ccccc2F)C1` (stereo unspecified) reads 12.4%; that for `CC(c1ccccc1)N1Cc2nc(N(C)C)ncc2C1=O` (stereo unspecified), 49%. On to `CN1CCC(N2Cc3nc(N)ncc3C2=O)CC1`, for which the cytotoxicity at 70.5 h is -11.6%. On to `CN1CCN(c2nsc(-c3ccccc3)c2C#N)CC1`, for which the cytotoxicity at 70.5 h was -2.35%. On to `CCn1nc(C)c(CNC(=O)c2nnc3ccccc3n2)c1C`, for which the cytotoxicity at 70.5 h is 0.73%. The value for `O=C(NCCn1cccn1)c1nnc2ccccc2n1` was 19.4%; that for `N#Cc1c(N2CCCCC2)nsc1-c1cccnc1` was 25%; that for `CN1CCN(C(=O)c2nnc3ccc(Cl)cc3n2)CC1` was -10.9%. With `Cc1ccc2nnc(C(=O)NCC3CCCC3)nc2c1`, the cytotoxicity at 70.5 h is -0.847%. The value for `CC(C)CN1Cc2nc(N3CCCC(C)C3)ncc2C1=O` (stereo unspecified) was -9.32%. Regarding `CNc1ncc2c(n1)CN(CCc1ccc(Cl)cc1)C2=O`, the cytotoxicity at 70.5 h was -5.88%.

Take `CCN1CCN(c2ncc3c(n2)CN(c2cnn(CC)c2)C3=O)CC1`: the cytotoxicity at 70.5 h is -6.35%. The result for `CCCN1Cc2nc(N3CCCC3)ncc2C1=O` reads -5.27%; that for `COC(=O)C1CCN(C(=O)c2nnc3ccc(C)cc3n2)CC1`, -6.57%. The result for `Cc1ccc2nnc(C(=O)NCCCn3cccn3)nc2c1` reads 6.08%; that for `Cc1nn(C)c(C)c1CN(C)C(=O)c1cc(NC(=O)C2CC2)n(C)n1`, -8.63%; that for `Cn1nc(C(=O)NC2CC(C)(C)NC(C)(C)C2)cc1NC(=O)C1CC1`, -8.61%. On to `Cc1nc2c(N3CCN(CCO)CC3)nc(N)nc2n1C`, for which the cytotoxicity at 70.5 h stood at 0.799%. In the case of `Cc1nc2c(N(C)Cc3ccnn3C)nc(N)nc2n1C`, the cytotoxicity at 70.5 h turned out to be 0.962%. The value for `CCn1nc(C)c(NC(=O)CCn2ncc3cc(C)ccc32)c1C` was 13.9%; that for `CN(C)CCNC(=O)CCn1ncc2c(Cl)cccc21` was -4.46%; that for `CCn1cc(CNC(=O)CCn2ncc3c(Cl)cccc32)cn1` was 17.5%. For `Cc1cc(O)nc(C2CN(CC3(O)CCOCC3)CCO2)n1` (stereo unspecified), the cytotoxicity at 70.5 h stood at 8.89%. The value for `CC(=O)N[C@@H]1CN(C(=O)c2cnc3ccccc3c2)C[C@H]1O` was 10.7%. The result for `O=C1CO[C@H]2CN(Cc3cccc(F)c3F)C[C@@H]2N1C1CCOCC1` reads 41.9%; that for `NC(=O)CN1CCC2(CC1)C[C@@H](O)[C@H](c1ccccc1)NC2=O`, -0.832%. In the case of `O=C(O)C1CN(c2cccc(Cl)c2)CCO1` (stereo unspecified), the cytotoxicity at 70.5 h was -4.2%. `Cc1cn[nH]c1C1COCCN1S(=O)(=O)c1cn[nH]c1` (stereo unspecified): the cytotoxicity at 70.5 h was -0.517%. In the case of `COc1cccc(CN2CCOC(c3cnccn3)C2)c1F` (stereo unspecified), the cytotoxicity at 70.5 h is -8.48%.

On to `Cc1noc(C)c1C(=O)N1CCCCC1c1cc(C)n2ccnc2n1` (stereo unspecified), for which the cytotoxicity at 70.5 h is -10.1%. The value for `CCCn1nccc1-c1cc(C2CCN(S(C)(=O)=O)CC2)nc(C)n1` was -6.18%; that for `Cc1cc(C2CCCN(S(=O)(=O)c3cn[nH]c3)C2)ccn1` (stereo unspecified) was -7.27%. As to `COCC(=O)N1CCCC1c1cccc(Nc2ncc(C)s2)n1` (stereo unspecified), the cytotoxicity at 70.5 h came to 0.0728%. The result for `CN1CCOC(C)(C(=O)N2CCSCC2)C1` (stereo unspecified) reads -4.76%. The value for `CNC(=O)C1CN(C)CCN(CCCOc2ccccc2F)C1` (stereo unspecified) was -3.84%; that for `O=C(CCN1CCc2ccccc21)N1C[C@@H](O)[C@H](N2CCCC2)C1` was -7.06%; that for `CC(=O)N1CCc2nnc(C3CCCN3CC3CCCCC3)n2CC1` (stereo unspecified) was -6.06%. On to `O=C(NCCNC1CCCCC1)c1cccs1`, for which the cytotoxicity at 70.5 h is -6.1%. The value for `Cc1cc(C(=O)NCc2ccc(F)cc2)nc(C2CCCN2C)n1` (stereo unspecified) was -2.73%.

Take `CN(C)c1cc(C2CCCN2C(=O)c2ccc(=O)n(C)c2)ccn1` (stereo unspecified): the cytotoxicity at 70.5 h was -7.99%. The value for `COc1ccc(-c2cnc(N(C)C)nc2C2CN(C(C)=O)CCO2)cc1` (stereo unspecified) was -11.5%; that for `Fc1ccc(-c2nccnc2C2CCCNC2)cc1` (stereo unspecified) was -3.79%.

For the compound `Fc1cccc(-c2nccnc2C2CCCNC2)c1` (stereo unspecified), the cytotoxicity at 70.5 h was -11.7%. In the case of `Cc1nccc(C2CCCCN2Cc2cccc(F)c2)n1` (stereo unspecified), the cytotoxicity at 70.5 h was -12.9%. The value for `CS(=O)(=O)N1CC(c2n[nH]c3ncccc23)C1` was -1.49%; that for `CS(=O)(=O)c1cn[nH]c1C1CCCN(C(=O)CN2CCOCC2)C1` (stereo unspecified) was -5.31%; that for `CN(C)c1nccc(C2CCCN(C(=O)CO)C2)n1` (stereo unspecified) was -7.31%. Turning to `COc1ccc(C(=O)N2C[C@@H](c3ccccc3)[C@@H]3NCCCC[C@@H]32)cc1`, the cytotoxicity at 70.5 h was -8.54%. In the case of `c1cc(N2CCOCC(Cc3ccc4[nH]ccc4c3)C2)ncn1` (stereo unspecified), the cytotoxicity at 70.5 h was -8.81%. The result for `Cc1cc(N2CCOCC(Cc3ccc4[nH]ccc4c3)C2)ncn1` (stereo unspecified) reads -9.7%.

On to `Cc1sc2c(C3CCCN(C)C3)nc(C)n2c1C` (stereo unspecified), for which the cytotoxicity at 70.5 h came out at 24.3%. The result for `CCC(C)N1CCC2(CC1)CN(c1cncnc1)C(=O)CO2` (stereo unspecified) reads -15.3%; that for `CN(C)C(=O)CC1CC2(CCN(Cc3cccs3)CC2)c2ccccc21` (stereo unspecified), -20%; that for `CCN1CC2(CC1=O)CN(Cc1cnn(C)c1)CCN(C(=O)N(C)C)C2` (stereo unspecified), 9.62%.

Take `O=C1COC2(CCN(Cc3ccsc3)CC2)CN1`: the cytotoxicity at 70.5 h was -4.53%. Regarding `Cc1cccc(C(=O)N2C[C@@H](OCc3ccncc3)[C@@H]3OCCC[C@@H]32)n1`, the cytotoxicity at 70.5 h was -12.5%.

Turning to `Cc1ccc(CN(CCCN2CCOCC2)Cc2cncn2C)o1`, the cytotoxicity at 70.5 h was -4.09%.
